Where two headings read alike, the source gives them in different places. Square brackets hold non-standard residues; d marks the D form. Peptide text beside a SMILES is read from it. * marks the point of attachment. X5 = O=C(CSCC(=O)*)NCCN1CCCC1=O; Aib = CC(C)(N)C(=O)O
Key:
Format in all cases: cell-based
GIP-R = molecular target: T1, GIP-R (Homo sapiens, UniProt P48546); assay: HitHunter cAMP assay (GIP-R); conditions: cAMP; for Emax at 1 µM: read-out: (Emax) GIP-R at 1 μM, Table 3; for Emax: read-out: (Emax) GIP-R
T1 sequence (P48546 22-466): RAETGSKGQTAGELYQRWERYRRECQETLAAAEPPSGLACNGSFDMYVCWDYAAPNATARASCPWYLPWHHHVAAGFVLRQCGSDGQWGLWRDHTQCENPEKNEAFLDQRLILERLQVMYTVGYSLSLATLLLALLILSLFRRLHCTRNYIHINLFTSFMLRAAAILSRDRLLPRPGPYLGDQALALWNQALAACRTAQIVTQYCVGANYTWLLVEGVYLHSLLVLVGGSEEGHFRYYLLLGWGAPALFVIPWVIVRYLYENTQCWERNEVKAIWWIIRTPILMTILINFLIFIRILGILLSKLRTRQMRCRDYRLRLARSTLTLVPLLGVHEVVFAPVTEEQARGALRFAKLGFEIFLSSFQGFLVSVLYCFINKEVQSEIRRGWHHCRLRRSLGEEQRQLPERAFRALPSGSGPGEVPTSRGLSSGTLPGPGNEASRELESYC
In short: (§1)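 cAMP accumulation read by luminescent HitHunter immunocompetition after 30 min room-temperature agonist stimulation. Agonists tested as 22-point twofold dilutions, in duplicate, on 10,000 cells/well in HBSS containing 625 μM IBMX, 10 mM HEPES and 0.2% BSA.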

GLP-1R [1] = molecular target: T2, GLP-1R (Homo sapiens, UniProt P43220); assay: PathHunter β-arrestin assay
T2 sequence (P43220 24-463): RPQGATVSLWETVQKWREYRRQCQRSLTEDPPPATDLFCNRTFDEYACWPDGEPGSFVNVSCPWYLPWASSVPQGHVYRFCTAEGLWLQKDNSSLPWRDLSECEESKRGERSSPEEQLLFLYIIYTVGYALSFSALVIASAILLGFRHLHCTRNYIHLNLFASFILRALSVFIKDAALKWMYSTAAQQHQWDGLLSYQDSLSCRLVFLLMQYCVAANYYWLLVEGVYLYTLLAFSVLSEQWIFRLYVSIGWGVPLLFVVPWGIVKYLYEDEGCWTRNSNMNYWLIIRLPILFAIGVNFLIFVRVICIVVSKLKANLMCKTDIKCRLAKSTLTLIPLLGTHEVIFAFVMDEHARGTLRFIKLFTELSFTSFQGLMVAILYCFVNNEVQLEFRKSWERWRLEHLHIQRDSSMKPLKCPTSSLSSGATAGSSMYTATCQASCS
In short: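 β-Arrestin recruitment measured by PathHunter enzyme-fragment luminescence, read after 3 h dark incubation at room temperature with detection solution. Beforehand, agonist in a 22-point 2-fold series was applied in duplicate for 90 min at 37 °C to 5,000 cells/well in BSA-containing (0.2%) medium.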

GLP-1R [2] = molecular target: T2, GLP-1R; assay: HitHunter cAMP assay (GLP-1R); conditions: cAMP; for Emax: read-out: (Emax) GLP-1R
In short: as §1

[3] = Table 3, read-out: EC50 GIP-R/nM
[4] = Table 3A, read-out: EC50 GIP-R/nM
[5] = PathHunter β-arrestin assay, read-out: β-arrestin activity EC50
[6] = Table 3, read-out: EC50 GLP-1R/nM
[7] = Table 3A, read-out: EC50 GLP-1R/nM

Compound	EC50 (GIP-R; [3]) [nM]	EC50 (GIP-R; [4]) [nM]	Emax at 1 µM (GIP-R) [%]	EC50 (GLP-1R [1]; [5]) [nM]	Emax (GLP-1R [2]; Table 3) [%]	EC50 (GLP-1R [2]; [6]) [nM]	Emax (GLP-1R [2]; Table 3A) [%]	EC50 (GLP-1R [2]; [7]) [nM]	EC50 (GIP-R; EC50 GIP-R/nM, Table 3) [nM]	EC50 (GIP-R; EC50 GIP-R/nM, Table 3A) [nM]	Emax (GIP-R; Table 3) [%]	Emax (GIP-R; Table 3A) [%]	EC50 (GLP-1R [1]) [nM]	EC50 (GLP-1R [2]; EC50 GLP-1R/nM, Table 3) [nM]	EC50 (GLP-1R [2]; EC50 GLP-1R/nM, Table 3A) [nM]
CC[C@H](C)[C@H](NC(=O)[C@H](CO)NC(=O)[C@H](Cc1ccc(O)cc1)NC(=O)[C@H](CC(=O)O)NC(=O)[C@H](CO)NC(=O)[C@@H](NC(=O)[C@H](Cc1ccccc1)NC(=O)[C@@H](NC(=O)CNC(=O)[C@H](CCC(=O)O)NC(=O)CN1C(=O)CSC1=O)[C@@H](C)O)[C@@H](C)O)C(=O)N[C@@H](Cc1ccc(O)cc1)C(=O)N[C@@H](CC(C)C)C(=O)N[C@@H](CC(=O)O)C(=O)N[C@@H](CCCCN)C(=O)N[C@@H](CCC(N)=O)C(=O)N[C@@H](C)C(=O)N[C@@H](C)C(=O)NC(C)(C)C(=O)N[C@@H](CCC(=O)O)C(=O)N[C@@H](Cc1ccccc1)C(=O)N[C@H](C(=O)N[C@@H](CC(N)=O)C(=O)N[C@@H](Cc1c[nH]c2ccccc12)C(=O)N[C@@H](CC(C)C)C(=O)N[C@@H](CC(C)C)C(=O)N[C@@H](C)C(=O)NCC(=O)NCC(=O)N1CCC[C@H]1C(=O)N[C@@H](CO)C(=O)N[C@@H](CO)C(=O)NCC(=O)N[C@@H](C)C(=O)N1CCC[C@H]1C(=O)N1CCC[C@H]1C(=O)N1CCC[C@H]1C(=O)N[C@@H](CO)C(=O)N[C@@H](CCCCN)C(N)=O)C(C)C [Compound 185]	> 1000	> 1000	8.6	> 1000	97	0.1 to 1	97	0.1 to 1	–	–	–	–	–	–	–
CC[C@H](C)[C@H](NC(=O)[C@H](CO)NC(=O)[C@H](Cc1ccc(O)cc1)NC(=O)[C@H](CC(=O)O)NC(=O)[C@H](CO)NC(=O)[C@@H](NC(=O)[C@H](Cc1ccccc1)NC(=O)[C@@H](NC(=O)CNC(=O)[C@H](CCC(=O)O)NC(=O)c1ccc(C(=O)NCCN2C(=O)CSC2=O)cc1)[C@@H](C)O)[C@@H](C)O)C(=O)N[C@@H](Cc1ccc(O)cc1)C(=O)N[C@@H](CC(C)C)C(=O)N[C@@H](CC(=O)O)C(=O)N[C@@H](CCCCN)C(=O)N[C@@H](CCC(N)=O)C(=O)N[C@@H](C)C(=O)N[C@@H](C)C(=O)NC(C)(C)C(=O)N[C@@H](CCC(=O)O)C(=O)N[C@@H](Cc1ccccc1)C(=O)N[C@H](C(=O)N[C@@H](CC(N)=O)C(=O)N[C@@H](Cc1c[nH]c2ccccc12)C(=O)N[C@@H](CC(C)C)C(=O)N[C@@H](CC(C)C)C(=O)N[C@@H](C)C(=O)NCC(=O)NCC(=O)N1CCC[C@H]1C(=O)N[C@@H](CO)C(=O)N[C@@H](CO)C(=O)NCC(=O)N[C@@H](C)C(=O)N1CCC[C@H]1C(=O)N1CCC[C@H]1C(=O)N1CCC[C@H]1C(=O)N[C@@H](CO)C(=O)N[C@@H](CCCCN)C(N)=O)C(C)C [Compound 186]	> 1000	> 1000	4	> 1000	94	1 to 10	94	1 to 10	–	–	–	–	–	–	–
CC[C@H](C)[C@H](NC(=O)[C@H](CO)NC(=O)[C@H](Cc1ccc(O)cc1)NC(=O)[C@H](CC(=O)O)NC(=O)[C@H](CO)NC(=O)[C@@H](NC(=O)[C@H](Cc1ccccc1)NC(=O)[C@@H](NC(=O)CNC(=O)[C@H](CCC(=O)O)NC(=O)CCC(=O)NCCN1C(=O)c2ccccc2C1=O)[C@@H](C)O)[C@@H](C)O)C(=O)N[C@@H](Cc1ccc(O)cc1)C(=O)N[C@@H](CC(C)C)C(=O)N[C@@H](CC(=O)O)C(=O)N[C@@H](CCCCN)C(=O)N[C@@H](CCC(N)=O)C(=O)N[C@@H](C)C(=O)N[C@@H](C)C(=O)NC(C)(C)C(=O)N[C@@H](CCC(=O)O)C(=O)N[C@@H](Cc1ccccc1)C(=O)N[C@H](C(=O)N[C@@H](CC(N)=O)C(=O)N[C@@H](Cc1c[nH]c2ccccc12)C(=O)N[C@@H](CC(C)C)C(=O)N[C@@H](CC(C)C)C(=O)N[C@@H](C)C(=O)NCC(=O)NCC(=O)N1CCC[C@H]1C(=O)N[C@@H](CO)C(=O)N[C@@H](CO)C(=O)NCC(=O)N[C@@H](C)C(=O)N1CCC[C@H]1C(=O)N1CCC[C@H]1C(=O)N1CCC[C@H]1C(=O)N[C@@H](CO)C(=O)N[C@@H](CCCCN)C(N)=O)C(C)C [Compound 187]	–	–	–	–	89	–	89	–	10 to 100	10 to 100	58	58	> 1000	10 to 100	10 to 100
CC[C@H](C)[C@H](NC(=O)[C@H](CO)NC(=O)[C@H](Cc1ccc(O)cc1)NC(=O)[C@H](CC(=O)O)NC(=O)[C@H](CO)NC(=O)[C@@H](NC(=O)[C@H](Cc1ccccc1)NC(=O)[C@@H](NC(=O)CNC(=O)[C@H](CCC(=O)O)NC(=O)CCCC(=O)NCCN1C(=O)c2ccccc2C1=O)[C@@H](C)O)[C@@H](C)O)C(=O)N[C@@H](Cc1ccc(O)cc1)C(=O)N[C@@H](CC(C)C)C(=O)N[C@@H](CC(=O)O)C(=O)N[C@@H](CCCCN)C(=O)N[C@@H](CCC(N)=O)C(=O)N[C@@H](C)C(=O)N[C@@H](C)C(=O)NC(C)(C)C(=O)N[C@@H](CCC(=O)O)C(=O)N[C@@H](Cc1ccccc1)C(=O)N[C@H](C(=O)N[C@@H](CC(N)=O)C(=O)N[C@@H](Cc1c[nH]c2ccccc12)C(=O)N[C@@H](CC(C)C)C(=O)N[C@@H](CC(C)C)C(=O)N[C@@H](C)C(=O)NCC(=O)NCC(=O)N1CCC[C@H]1C(=O)N[C@@H](CO)C(=O)N[C@@H](CO)C(=O)NCC(=O)N[C@@H](C)C(=O)N1CCC[C@H]1C(=O)N1CCC[C@H]1C(=O)N1CCC[C@H]1C(=O)N[C@@H](CO)C(=O)N[C@@H](CCCCN)C(N)=O)C(C)C [Compound 188]	–	–	–	–	101	–	101	–	1 to 10	1 to 10	107	107	> 1000	10 to 100	10 to 100
CC[C@H](C)[C@H](NC(=O)[C@H](CO)NC(=O)[C@H](Cc1ccc(O)cc1)NC(=O)[C@H](CC(=O)O)NC(=O)[C@H](CO)NC(=O)[C@@H](NC(=O)[C@H](Cc1ccccc1)NC(=O)[C@@H](NC(=O)CNC(=O)[C@H](CCC(=O)O)NC(=O)CSCC(=O)NCCN1CCCC1=O)[C@@H](C)O)[C@@H](C)O)C(=O)N[C@@H](Cc1ccc(O)cc1)C(=O)N[C@@H](CC(C)C)C(=O)N[C@@H](CC(=O)O)C(=O)N[C@@H](CCCNC(=N)N)C(=O)N[C@@H](CCC(N)=O)C(=O)N[C@@H](C)C(=O)N[C@@H](C)C(=O)NC(C)(C)C(=O)N[C@@H](CCC(=O)O)C(=O)N[C@@H](Cc1ccccc1)C(=O)N[C@H](C(=O)N[C@@H](CC(N)=O)C(=O)N[C@@H](Cc1c[nH]c2ccccc12)C(=O)N[C@@H](CC(C)C)C(=O)N[C@@H](CC(C)C)C(=O)N[C@@H](C)C(=O)NCC(=O)NCC(=O)N1CCC[C@H]1C(=O)N[C@@H](CO)C(=O)N[C@@H](CO)C(=O)NCC(=O)N[C@@H](C)C(=O)N1CCC[C@H]1C(=O)N1CCC[C@H]1C(=O)N1CCC[C@H]1C(=O)N[C@@H](CO)C(N)=O)C(C)C [Compound 189] (X5-EGTFTSDYSIYLDRQAA[Aib]EFVNWLLAGGPSSGAPPPS-NH2)	> 1000	> 1000	4.5	> 1000	94	1 to 10	94	1 to 10	–	–	–	–	–	–	–

Reference: US20260176320A1, “MODULATORS OF G-PROTEIN COUPLED RECEPTORS” (priority 2018, published 2026)
